Measurements taken from patent publication US20250129041A1, “MOLECULAR GLUE AND USES THEREOF” (ASTROGEN, INC., priority 2023, published 2025).

Key:
CRBN proteins = CRBN proteins (Homo sapiens (Human), UniProt Q96SW2); assay: CRBN affinity test; type: binding; settings: purified CRBN proteins expressed in E. coli
Procedure: First, CRBN proteins were expressed in E. coli and purified, and then the purified CRBN proteins were dissolved in a buffer solution (PBS). […] After the mixture was sufficiently mixed and reacted, the binding strength at each concentration was measured to collect data, and a binding curve was created therefrom (see FIG. 13), and the KD (equilibrium dissociation constant) values were derived therefrom (see Table 9 and FIG. 14).

hERG channel [1] = molecular target: T1, hERG channel (Homo sapiens (Human), UniProt Q12809); assay: hERG ligand binding assay; settings: membranes of hERG channel-expressing HEK293 cell line
Procedure: Additionally, a ligand binding assay was performed to measure the affinity of AST-DT-218 that binds to the hERG channel. First, a hERG channel-expressing cell line (HEK293) was cultured, and then the cells were centrifuged to extract the cell membrane, and membrane proteins were prepared using a cell lysis reagent. A labeled hERG ligand was prepared and AST-DT-218 was dissolved in a solvent (DMSO) and diluted to a concentration (1 μM). After dispensing the cell membrane proteins into a 96-well plate or appropriate experimental equipment, competitive binding experiments were performed by adding AST-DT-218 at various concentrations to each well and incubated for 1 to 2 hours. After completion of the binding, the unbound ligands were washed using a recovery solution to separate the same, the extent of ligand binding was measured using a radiation detection device or fluorescence reader, and the signal intensities were analyzed to calculate the ligand binding inhibition ratio. The degree of binding inhibition according to the concentration of AST-DT-218 was plotted to derive the IC50 value.

Hep3B [2] = assay: HCC cell survival by cell nuclear staining, 24 hours, Hep3B; type: cell-based; settings: Homo sapiens
Procedure: (§1) An indication expansion experiment was performed to evaluate the potential of AST-DT-218 for treating hepatocellular carcinoma (HCC). First, HCC cell lines (Huh7, Hep3B, SNU449, and SNU475) were prepared, and AST-DT-218 and Sorafenib were at the highest concentration of 50 μM, serially diluted by half starting therefrom, thereby preparing 10 concentrations (50 μM, 25 μM, 12.5 μM, etc.). HCC cell lines (Huh7, Hep3B, SNU449, SNU475) were seeded into 96-well plates, in which each well was treated with AST-DT-218 and Sorafenib solutions, and the cells were cultured in an incubator for 24 hours. Then, the cell survival at each concentration was evaluated by measuring the cell count using cell nuclear staining, and a concentration-response curve of cell survival was created based on the data, and the IC50 value was derived.

hERG channel [3] = molecular target: T1, hERG channel; assay: hERG-related cardiotoxicity test using automated patch clamp; type: cell-based; settings: hERG channel-expressing CHO cell line
Procedure: In order to evaluate the inhibitory effect of AST-DT-218 on the hERG channel and determine its potential to induce cardiotoxicity, a hERG-related cardiotoxicity test using an automated patch clamp was performed. First, a hERG channel-expressing cell line (CHO) was cultured, and AST-DT-218 was dissolved in a solvent (DMSO) and diluted to a concentration (1 μM). Cells were mounted on a patch-clamp device, and the electrical activity of hERG channels was recorded by measuring voltage-dependent currents. The inhibitory effect was calculated as the current reduction ratio, and the IC50 value was derived by constructing a concentration-response curve.

Huh7 [4] = assay: HCC cell survival by cell nuclear staining, 24 hours, Huh7; type: cell-based; settings: Homo sapiens, Huh-7
Procedure: as §1

MDA-MB-231 = assay: Dose response curve, cell survival, 48 hours, MDA-MB-231; type: cell-based; settings: Homo sapiens, Adenocarcinoma, read-out: IC50 of AST-DT-218, MDA-MB-231
Procedure: (§2) A DRC was created to determine whether AST-DT-218 is effective in killing various cancer cells. First, hepatoma cell lines (Huh7 and Hep3B), non-small cell lung cancer cell lines (NCI-H460 and NCI-H1299), pancreatic cancer cell lines (PANC-1 and Mia-Paca-2), rectal cancer cell lines (HT29 and HCT116), a gastric adenocarcinoma cell line (AGS), a malignant melanoma cell line (A375), and an adenocarcinoma cell line (MDA-MB-231) were prepared. Each cell line was cultured in a flask, and the cells which reached the logarithmic growth phase were prepared, washed with PBS, harvested with trypsin, centrifuged to adjust the cell density, and then resuspended in an appropriate culture medium, and plated into 96-well plates. After culturing until the cells attached to the plates and stabilized, AST-DT-218 and controls (lenalidomide and pomalidomide) were prepared and diluted to various concentrations (10-point by diluting by half from the highest concentration of 50 μM). […] After completion of the culture, cell survival was assessed using a cell counting method through cell nuclear staining. Data were collected by measuring cell survival at each concentration, and then DRC was created (see FIGS. 5 to 12) and IC50 values were calculated (see Table 8).

SNU449 = assay: HCC cell survival by cell nuclear staining, 24 hours, SNU449; type: cell-based; settings: Homo sapiens, SNU-449
Procedure: as §1

Mia-Paca-2 = assay: Dose response curve, cell survival, 48 hours, Mia-Paca-2; type: cell-based; settings: Homo sapiens, Pancreatic Carcinoma, read-out: IC50 of AST-DT-218, Mia-Paca-2
Procedure: as §2

[5] = Maximum tolerated dose (MTD) test; type: in vivo; settings: mice, daily injection day 1 to day 5, highest dose 20 mg/kg
Procedure: The in vivo maximum tolerated dose (MTD) of AST-DT-218 was evaluated to determine the highest dose at which AST-DT-218 could be safely administered to experimental animals. First, the compound AST-DT-218 and the preparation solvent to be used in the experiment were prepared. The solvent was a mixture of 5% Tween 80, 40% PEG400, 10% DMSO, and 45% DPBS, and AST-DT-218 was prepared according to each dose as shown in Table 6 below. Mice (n=5) to be used in the experiment were prepared and divided into five groups to perform the experiment. The control group was injected with only 0 mg/kg of the solvent, and the remaining groups were injected with the AST-DT-218 solution at 2.5 mg/kg, 5 mg/kg, 10 mg/kg, and 20 mg/kg, respectively, and the injection amount was set to 0.1 mL for a 20 g mouse.
From day 1 to day 5, the injections were administered at the same time daily, and the changes in weight and abnormal behaviors of the mice were observed and data were collected during the experiment.

Hep3B [6] = assay: Dose response curve, cell survival, 48 hours, Hep3B; type: cell-based; settings: Homo sapiens, Hepatocellular Carcinoma, read-out: IC50 of AST-DT-218, Hep3B
Procedure: as §2

A375 = assay: Dose response curve, cell survival, 48 hours, A375; type: cell-based; settings: Homo sapiens, A-375, Malignant Melanoma, read-out: IC50 of AST-DT-218, A375
Procedure: as §2

TA100 strain = system: TA100 strain
Procedure: (§3) First, TA98 and TA 100 strains, which detect frameshift mutations and point mutations, respectively, were cultured. Then, AST-DT-218 was dissolved in a solvent and diluted to various concentrations (20.5 μg/mL, 61.7 μg/mL 185.1 μg/mL, […], 1666.6 μg/mL, and 5000 μg/mL) to prepare an […] (a metabolic activation system; concentration: 30%) including liver enzyme extracts and supplements. Into a histidine-deficient medium at different concentrations of AST-DT-218, (i) the TA98 strain was inoculated without the […] (TA98−S9), (ii) the TA98 strain was inoculated by mixing it with the […] (TA98+S9), (iii) the TA100 strain was inoculated without the […] (TA100−S9), and (iv) the TA100 strain was inoculated by mixing it with the S9 mixture (TA100+S9). As a solvent control, which is a negative control, only the solvent was inoculated into a histidine-deficient medium, and only a pure solvent was used in the absence of any compound. […] After culturing for 48 to 72 hours in each medium, the number of colonies generated was counted to calculate the mutation rate, and the mutagenic effect was compared depending on the presence or absence of the S9 mixture to analyze the effect on metabolic activation.

TA98 strain = system: TA98 strain
Procedure: as §3

SNU475 = assay: HCC cell survival by cell nuclear staining, 24 hours, SNU475; type: cell-based; settings: Homo sapiens, SNU-475
Procedure: as §1

PANC-1 = assay: Dose response curve, cell survival, 48 hours, PANC-1; type: cell-based; settings: Homo sapiens, Pancreatic Carcinoma, read-out: IC50 of AST-DT-218, PANC-1
Procedure: as §2

HCT116 = assay: Dose response curve, cell survival, 48 hours, HCT116; type: cell-based; settings: Homo sapiens, HCT-116, Colorectal Carcinoma, read-out: IC50 of AST-DT-218, HCT116
Procedure: as §2

HT29 = assay: Dose response curve, cell survival, 48 hours, HT29; type: cell-based; settings: Homo sapiens, HT-29, Colorectal Carcinoma, read-out: IC50 of AST-DT-218, HT29
Procedure: as §2

Huh7 [7] = assay: Dose response curve, cell survival, 48 hours, Huh7; type: cell-based; settings: Homo sapiens, Huh-7, Hepatocellular Carcinoma, read-out: IC50 of AST-DT-218, Huh7
Procedure: as §2

[8] = Single dose toxicity study; type: in vivo; settings: rats
Procedure: The toxicity of AST-DT-218 at a single dose was evaluated. First, healthy adult male and female rats were prepared and then fasted for 12 hours before the experiment. Solutions were prepared for each dose group (0 mg/kg, 500 mg/kg, 1,000 mg/kg, and 2,000 mg/kg), and the final solution volume was set at 40 mL/kg.
For […] to 15 days after administration, clinical symptoms (e.g., colored stool, hairloss, etc.), changes in weight, changes in food consumption, and changes in organ weight were observed, and ophthalmic examinations were performed and autopsies were performed.

AGS = assay: Dose response curve, cell survival, 48 hours, AGS; type: cell-based; settings: Homo sapiens, Gastric Adenocarcinoma, read-out: IC50 of AST-DT-218, AGS
Procedure: as §2

NCI-H460 = assay: Dose response curve, cell survival, 48 hours, NCI-H460; type: cell-based; settings: Homo sapiens, Non-Small Cell Lung Cancer, read-out: IC50 of AST-DT-218, NCI-H460
Procedure: as §2

NCI-H1299 = assay: Dose response curve, cell survival, 48 hours, NCI-H1299; type: cell-based; settings: Homo sapiens, Non-Small Cell Lung Cancer, read-out: IC50 of AST-DT-218, NCI-H1299
Procedure: as §2

TA98 and TA100 strains = settings: positive controls
Procedure: as §3

Chain of CRBN proteins (Q96SW2 whole entry): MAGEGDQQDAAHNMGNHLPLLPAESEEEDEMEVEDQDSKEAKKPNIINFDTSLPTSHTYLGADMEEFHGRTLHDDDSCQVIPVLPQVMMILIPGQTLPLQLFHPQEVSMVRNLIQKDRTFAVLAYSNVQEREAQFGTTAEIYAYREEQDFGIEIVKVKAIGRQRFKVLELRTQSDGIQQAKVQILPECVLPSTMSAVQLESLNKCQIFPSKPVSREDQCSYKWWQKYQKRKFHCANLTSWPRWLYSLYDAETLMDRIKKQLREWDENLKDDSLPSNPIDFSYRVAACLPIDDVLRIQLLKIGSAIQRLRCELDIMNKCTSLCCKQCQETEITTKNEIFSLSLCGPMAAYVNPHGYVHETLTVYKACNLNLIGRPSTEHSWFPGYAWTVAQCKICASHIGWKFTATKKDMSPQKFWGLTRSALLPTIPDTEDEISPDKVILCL
T1 sequence (Q12809 whole entry): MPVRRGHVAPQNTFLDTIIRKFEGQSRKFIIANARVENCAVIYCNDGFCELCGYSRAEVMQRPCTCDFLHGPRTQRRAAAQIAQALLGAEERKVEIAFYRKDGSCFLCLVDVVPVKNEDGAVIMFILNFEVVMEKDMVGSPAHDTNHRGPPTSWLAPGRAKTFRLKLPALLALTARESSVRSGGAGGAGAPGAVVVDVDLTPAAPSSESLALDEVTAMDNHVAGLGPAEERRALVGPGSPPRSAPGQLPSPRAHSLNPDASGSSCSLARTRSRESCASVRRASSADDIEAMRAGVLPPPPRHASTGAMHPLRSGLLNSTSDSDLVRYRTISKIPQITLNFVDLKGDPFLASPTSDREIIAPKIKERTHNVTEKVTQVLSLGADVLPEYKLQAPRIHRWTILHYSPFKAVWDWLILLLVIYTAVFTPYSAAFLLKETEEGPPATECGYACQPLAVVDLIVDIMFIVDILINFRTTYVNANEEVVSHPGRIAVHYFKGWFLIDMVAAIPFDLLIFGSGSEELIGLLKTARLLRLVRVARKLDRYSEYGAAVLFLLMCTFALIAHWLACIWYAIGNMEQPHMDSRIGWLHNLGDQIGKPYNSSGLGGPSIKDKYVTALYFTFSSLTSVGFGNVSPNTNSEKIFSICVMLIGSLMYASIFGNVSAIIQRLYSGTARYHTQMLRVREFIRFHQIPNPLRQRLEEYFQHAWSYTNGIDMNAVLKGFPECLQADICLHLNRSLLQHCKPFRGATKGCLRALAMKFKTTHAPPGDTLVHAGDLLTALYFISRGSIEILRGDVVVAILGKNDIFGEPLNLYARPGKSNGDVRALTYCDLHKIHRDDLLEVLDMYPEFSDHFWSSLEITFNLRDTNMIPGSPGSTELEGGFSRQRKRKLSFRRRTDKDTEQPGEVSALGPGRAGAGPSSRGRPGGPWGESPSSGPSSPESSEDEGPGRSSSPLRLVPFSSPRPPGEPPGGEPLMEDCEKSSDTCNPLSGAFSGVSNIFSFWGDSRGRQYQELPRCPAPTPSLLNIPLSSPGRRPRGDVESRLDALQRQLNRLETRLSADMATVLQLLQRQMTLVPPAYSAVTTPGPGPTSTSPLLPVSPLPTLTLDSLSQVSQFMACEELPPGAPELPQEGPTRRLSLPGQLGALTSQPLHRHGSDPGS

In the case of `CCCC(C)Nc1cccc2c1C(=O)N(C1CCC(=O)NC1=O)C2=O` (stereo in doubt) [AST-DT-135, 2-(2,6-dioxopiperidin-3-yl)-4-(((S)-pentan-2-yl)amino)isoindoline-1,3-dione], the Kd (CRBN proteins) is reported as 29 nM.
For `COc1ccc([C@@H](C)Nc2cccc3c2C(=O)N(C2CCC(=O)NC2=O)C3=O)cc1` (stereo partly drawn) [AST-DT-218, 2-(2,6-dioxopiperidin-3-yl)-4-(((R)-1-(4-methoxyphenyl)ethyl)amino)isoindoline-1,3-dione], the Kd (CRBN proteins) was 16 nM, the “possibility of causing cardiotoxicity (hERG ligand binding)” value (hERG channel [1]) was “low possibility of causing cardiotoxicity” and the IC50 (Hep3B [2]) was 0.378 µM. For the same molecule, the “possibility of causing cardiotoxicity (hERG patch clamp)” value (hERG channel [3]) was “low possibility of causing cardiotoxicity”, the IC50 (Huh7 [4]) was 0.75 µM and the IC50 (MDA-MB-231) was 0.636 µM. For the same molecule, the IC50 (SNU449) was 0.155 µM, the IC50 (Mia-Paca-2) was 0.292 µM and the “weight loss or abnormal behavior” value [5] was “no weight loss or abnormal behavior”. For the same molecule, the IC50 (Hep3B [6]) was 0.882 µM, the IC50 (A375) was 0.227 µM and the “number of mutant colonies” value (TA100 strain; TA100, regardless of presence or absence of S9 mixture) was “no significant increase”. The “Mutagenic Data Points w/ S9” value (TA100 strain; TA100, test conc. 20.5-5,000 μg/mL, with S9) was “No”, the “Mutagenic Data Points w/o S9” value (TA100 strain; TA100, test conc. 20.5-5,000 μg/mL, without S9) was “No” and the “number of mutant colonies” value (TA98 strain; TA98, regardless of presence or absence of S9 mixture) was “no significant increase”. The “Mutagenic Data Points w/ S9” value (TA98 strain; TA98, test conc. 20.5-5,000 μg/mL, with S9) was “No”, the “Mutagenic Data Points w/o S9” value (TA98 strain; TA98, test conc. 20.5-5,000 μg/mL, without S9) was “No” and the IC50 (SNU475) was 1.45 µM. For the same molecule, the IC50 (PANC-1) was 0.674 µM, the IC50 (HCT116) was 0.187 µM and the IC50 (HT29) was 0.34 µM. For the same molecule, the IC50 (Huh7 [7]) was 0.693 µM, the “changes in clinical symptoms, body weight, food consumption, ophthalmological examination, organ weights, and autopsies” value ([8]; single oral dose up to 2,000 mg/kg, 15 days observation) was “no toxicologically significant changes” and the “Clinical Signs” value ([8]; single p.o. dose 500 mg/kg, all animals, day 2) was “colored stool”. The “Clinical Signs” value ([8]; single p.o. dose 1,000 mg/kg, all animals, day 2) was “colored stool”, the “Clinical Signs” value ([8]; single p.o. dose 2,000 mg/kg, all animals, day 2) was “colored stool” and the “Clinical Signs” value ([8]; single p.o. dose 2,000 mg/kg, animal #19, day 14-15) was “loss of fur”. The “Clinical Signs” value ([8]; single p.o. dose 2,000 mg/kg, animal #40, day 3) was “colored stool”, the “Clinical Signs” value ([8]; single p.o. dose 2,000 mg/kg, animals #18 to #20, day 3) was “colored stool” and the IC50 (AGS) was 0.254 µM. The IC50 (NCI-H460) was 0.242 µM and the IC50 (NCI-H1299) was 0.39 µM.
For `C[C@H](CO)Nc1cccc2c1C(=O)N(C1CCC(=O)NC1=O)C2=O` (stereo partly drawn) [AST-DT-220, 2-(2,6-dioxopiperidin-3-yl)-4-(((R)-1-hydroxypropan-2-yl)amino)isoindoline-1,3-dione], the Kd (CRBN proteins) was 52 nM.
For `Nc1ccc2cc3ccccc3cc2c1` [Example 2-AA, 2-aminoanthracene], the “number of mutant colonies” value (TA98 and TA100 strains) was “significant increase”.
In the case of `O=[N+]([O-])c1ccc2c(c1)Cc1ccccc1-2` [Example 2-NF, 2-nitrofluorene], the “number of mutant colonies” value (TA98 and TA100 strains) is reported as “significant increase”.
In the case of `CNC(=O)c1cc(Oc2ccc(NC(=O)Nc3ccc(Cl)c(C(F)(F)F)c3)cc2)ccn1` [Sorafenib, reference compound], the IC50 (Hep3B [2]) is reported as 5.67 µM, the IC50 (Huh7 [4]) is reported as 4.37 µM and the IC50 (SNU449) is reported as 11.3 µM.
